The text below walks through data of patent US20260001914A1, “MACROCYCLIC PEPTIDES TARGETING KRAS” (Merck Sharp & Dohme LLC, priority 2022, published 2026).

*1 amine or outer side, *2 acyl side, *3 side chain or, on linkers, in order; H or OH if unused. Where a SMILES comes first, the peptide text is derived from it. Bridges are numbered along the chain shown (N, C = ends). [ ]: non-standard residue; d: D form. Phe(4-guanidino) = N=C(N)Nc1ccc(C[C@H](N)C(=O)O)cc1; Ala(pyrimidin-5-yl) = N[C@@H](Cc1cncnc1)C(=O)O; Gly(N-(CH2)3-guanidino) = N=C(N)NCCCNCC(=O)O; X6 = O=C([C@H](Cc1cnn(C2COC2)c1)N[*:1])[*:2]; NMePhe(3-Me) = CN[C@@H](Cc1cccc(C)c1)C(=O)O; Phe(4-CH2NH2) = NCc1ccc(C[C@H](N)C(=O)O)cc1; NMePhe(3-F) = CN[C@@H](Cc1cccc(F)c1)C(=O)O; 3Pal(6-OMe) = COc1ccc(C[C@H](N)C(=O)O)cn1; X25 = O=C([C@H](Cc1ccc(F)nc1)N[*:1])[*:2]; X11 = CC(C)(F)CC[C@H](N[*:1])C(=O)[*:2]; X15 = O=C([C@H](Cc1cnccc1F)N[*:1])[*:2]; X30 = O=C([C@H](Cc1ncccc1F)N[*:1])[*:2]; Phe(4-Me) = Cc1ccc(C[C@H](N)C(=O)O)cc1; 1Nal = N[C@@H](Cc1cccc2ccccc12)C(=O)O; Phe(2-F) = N[C@@H](Cc1ccccc1F)C(=O)O; X31 = O=C([C@H](CCC1CC1)N[*:1])[*:2]; NMe3Pal = CN[C@@H](Cc1cccnc1)C(=O)O; X1 = O=C(C12CC(CN[*:1])(C1)C2)[*:2]; Aha = [N-]=[N+]=NCC[C@H](N)C(=O)O; Ala(cPr) = N[C@@H](CC1CC1)C(=O)O; NMeF = CN[C@@H](Cc1ccccc1)C(=O)O; PhLac = O=C(O)[C@@H](O)Cc1ccccc1; 3Pal = N[C@@H](Cc1cccnc1)C(=O)O; d(αMeC) = C[C@@](N)(CS)C(=O)O; Ahp(2) = CCCCC[C@H](N)C(=O)O; Cba = N[C@@H](CC1CCC1)C(=O)O; hLeu = CC(C)CC[C@H](N)C(=O)O; αMeC = C[C@](N)(CS)C(=O)O; NMeA = CN[C@@H](C)C(=O)O; Nle = CCCC[C@H](N)C(=O)O; Nva = CCC[C@H](N)C(=O)O Some results are limits rather than exact numbers.

For this experiment, the target named is phosphorylation levels of ERK1/2 in AsPC-1 (homozygous KRAS-G12D) cells (Homo sapiens, UniProt P01116, G12D). The experiment can be described thus: Cellular phospho-ERK assay in AsPC-1 cells (Alpha Screen), assay medium without fetal bovine serum.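 Further: signal taken as phospho-ERK over total ERK per well, both detected in one multiplex bead assay, EC50 from four-parameter logistic fit of dose-response curves.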 It counts as cell-based. The following applies: phospho-ERK AlphaScreen, 18 h. Background: In Alpha technology, singlet oxygen from a donor bead excites a nearby acceptor bead.
phosphorylation levels of ERK1/2 in AsPC-1 (homozygous KRAS-G12D) cells, sequence (P01116 1-186 G12D): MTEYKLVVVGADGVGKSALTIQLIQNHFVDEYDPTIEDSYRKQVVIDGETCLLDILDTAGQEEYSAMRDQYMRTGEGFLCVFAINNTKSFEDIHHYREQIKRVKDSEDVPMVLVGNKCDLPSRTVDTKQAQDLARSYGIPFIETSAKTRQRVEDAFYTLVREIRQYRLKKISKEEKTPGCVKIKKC
As usually defined, the EC50 is the midpoint of the concentration-response curve. Read a high EC50 as a need for much substance. The molecule `CCCC[C@@H]1NC(=O)[C@H](Cc2cncnc2)NC(=O)[C@H](C)N(C)C(=O)[C@H](Cc2ccccc2)OC(=O)C23CC(CNC(=O)[C@H](Cc4cccc(F)c4)N(C)C(=O)[C@H](CCCC)NC(=O)[C@H](Cc4ccccc4F)NC1=O)(C2)C3` [compound 174, cyclo(FLac-NMeA-PyrimAla-Nle-Phe2F-Nle-NMePhe3F-amBCP)] (cyclo([NMeA][Ala(pyrimidin-5-yl)][Nle][Phe(2-F)][Nle][NMePhe(3-F)][X1][PhLac])) showed an EC50 of 0.734 µM.

Molecule `CCCC[C@@H]1NC(=O)[C@H](Cc2cccnc2)NC(=O)[C@H](CCCNC(=N)N)NC(=O)[C@H](Cc2ccccc2)NC(=O)CSC[C@@](C)(C(N)=O)NC(=O)[C@H](Cc2ccccc2)N(C)C(=O)[C@H](CCCC)NC(=O)[C@H](Cc2ccccc2F)NC1=O` [compound 160, cyclo(F-R-3Pal-Nle-Phe2F-Nle-NMeF-aMeCl-ClAc)] ({CH2CO}-FR[3Pal][Nle][Phe(2-F)][Nle][NMeF][αMeC]-NH2; thioether N-8) registered a 50% effective concentration (EC50) above 50.8 µM.

On to `CCCC[C@@H]1NC(=O)[C@H](C(C)C)NC(=O)[C@H](CC2CCC2)NC(=O)[C@H](Cc2cccnc2)NC(=O)[C@H](CCN=[N+]=[N-])NC(=O)[C@H](Cc2ccccc2)NC(=O)C23CC(CNC(=O)[C@H](Cc4cccnc4)N(C)C1=O)(C2)C3` [compound 113, cyclo(F-DabN3~3Pal-cBuA-V-Nle-NMe3Pal-amBCP)] (cyclo(F[Aha][3Pal][Cba]V[Nle][NMe3Pal][X1])), for which the concentration giving a half-maximal response (EC50) is above 50.8 µM.

With `CCCCC[C@@H]1NC(=O)[C@H](Cc2ccc(OC)cc2)NC(=O)[C@H](CC2CCC2)NC(=O)[C@H](Cc2ccc(OC)nc2)NC(=O)[C@H](CCCNC(=N)N)NC(=O)[C@H](Cc2ccccc2)NC(=O)CSC[C@@](C)(C(N)=O)NC(=O)[C@H](Cc2ccccc2)N(C)C1=O` [compound 365, cyclo(F-R-40Me3Pal-cBuA-TyrOMe-Ahp-NMeF-aMeCl-ClAc)] ({CH2CO}-FR[3Pal(6-OMe)][Cba]Y(Me)[Ahp(2)][NMeF][αMeC]-NH2; thioether N-8), the concentration for a half-maximal effect (EC50) is above 50.8 µM.

The molecule `CC(C)CC[C@@H]1NC(=O)[C@H](Cc2cnn(C3COC3)c2)NC(=O)[C@H](CC2CC2)NC(=O)[C@H](Cc2cncnc2)NC(=O)[C@H](C)N(C)C(=O)[C@H](Cc2ccccc2)OC(=O)C23CC(CNC(=O)[C@H](Cc4ccccc4)N(C)C1=O)(C2)C3` [compound 300, cyclo(FLac-NMeA-PyrimAla-cPrA-AlaPyz1Ox-hL-NMeF-amBCP)] (cyclo([Ala(cPr)][X6][hLeu][NMeF][X1][PhLac][NMeA][Ala(pyrimidin-5-yl)])) gave an EC50 above 50.8 µM.

`C[C@H]1C(=O)N[C@@H](Cc2cncnc2)C(=O)N[C@@H](CC2CC2)C(=O)N[C@@H](Cc2ccccc2F)C(=O)N[C@@H](CCC(C)(C)F)C(=O)N(C)[C@@H](Cc2ccccc2)C(=O)NCC23CC(C2)(C3)C(=O)O[C@@H](Cc2ccccc2)C(=O)N1C` [compound 277, cyclo(FLac-NMeA-PyrimAla-cPrA-Phe2F-hL3F-NMeF-amBCP)] (cyclo([Ala(cPr)][Phe(2-F)][X11][NMeF][X1][PhLac][NMeA][Ala(pyrimidin-5-yl)])) displayed a concentration for a half-maximal effect (EC50) of 0.793 µM.

`CCCCC[C@@H]1NC(=O)[C@H](Cc2ccc(OC)cc2)NC(=O)[C@H](CC2CCC2)NC(=O)[C@H](Cc2ccc(NC(=N)N)cc2)NC(=O)CN(CCCNC(=N)N)C(=O)[C@H](Cc2ccccc2)NC(=O)CSC[C@@](C)(C(N)=O)NC(=O)[C@H](Cc2ccccc2)N(C)C1=O` [compound 361, cyclo(F-NGnG-Phe4Gn-cBuA-TyrOMe-Ahp-NMeF-aMeCl-ClAc)] ({CH2CO}-F[Gly(N-(CH2)3-guanidino)][Phe(4-guanidino)][Cba]Y(Me)[Ahp(2)][NMeF][αMeC]-NH2; thioether N-8) yielded an EC50 of 39.7 µM.

For the molecule `CCCC[C@@H]1NC(=O)[C@H](Cc2ccc(CN)cc2)NC(=O)[C@H](CCCNC(=N)N)NC(=O)[C@H](Cc2cccc3ccccc23)NC(=O)CSC[C@](C)(C(=O)O)NC(=O)[C@H](Cc2ccccc2)N(C)C(=O)[C@H](CCCC)NC(=O)[C@H](Cc2ccc(O)cc2)NC1=O` [compound 144, cyclo(1Nal-R-Phe4CH2NH2-Nle-Y-Nle-NMeF-daMeC-ClAc)] ({CH2CO}-[1Nal]R[Phe(4-CH2NH2)][Nle]Y[Nle][NMeF][d(αMeC)]-OH; thioether N-8), the EC50 is above 50.8 µM.

`CCCC[C@@H]1NC(=O)[C@H](Cc2cccnc2)NC(=O)[C@H](C)N(C)C(=O)[C@H](Cc2ccc(OC)cc2)NC(=O)C23CC(CNC(=O)[C@H](Cc4cccnc4)N(C)C(=O)[C@H](CCCC)NC(=O)[C@H](Cc4ccccc4F)NC1=O)(C2)C3` [compound 169, cyclo(TyrOMe-NMeA-3Pal-Nle-Phe2F-Nle-NMe3Pal-amBCP)] (cyclo([3Pal][Nle][Phe(2-F)][Nle][NMe3Pal][X1]Y(Me)[NMeA])) registered a concentration giving a half-maximal response (EC50) above 50.8 µM.

`CCCC[C@@H]1NC(=O)[C@H](Cc2ccc(F)nc2)NC(=O)[C@H](C)N(C)C(=O)[C@H](Cc2ccccc2)OC(=O)C23CC(CNC(=O)[C@H](Cc4ccccc4)N(C)C(=O)[C@H](CCC)NC(=O)[C@H](Cc4ccccc4F)NC1=O)(C2)C3` [compound 234, cyclo(FLac-NMeA-4F3Pal-Nle-Phe2F-Nva-NMeF-amBCP)] (cyclo([NMeA][X25][Nle][Phe(2-F)][Nva][NMeF][X1][PhLac])) showed an EC50 above 50.8 µM.

Molecule `Cc1cccc(C[C@H]2C(=O)NCC34CC(C3)(C4)C(=O)O[C@@H](Cc3ccccc3)C(=O)N(C)[C@@H](C)C(=O)N[C@@H](Cc3cncnc3)C(=O)N[C@@H](CC3CC3)C(=O)N[C@@H](Cc3ccccc3F)C(=O)N[C@@H](CCC3CC3)C(=O)N2C)c1` [compound 334, cyclo(FLac-NMeA-PyrimAla-cPrA-Phe2F-hcPrA-NMePhe3Me-amBCP)] (cyclo([Ala(cPr)][Phe(2-F)][X31][NMePhe(3-Me)][X1][PhLac][NMeA][Ala(pyrimidin-5-yl)])) came in with a concentration for a half-maximal effect (EC50) of 0.224 µM.

`CCCC[C@@H]1NC(=O)[C@H](Cc2ccc(F)nc2)NC(=O)[C@H](C)N(C)C(=O)[C@H](Cc2ccccc2)OC(=O)C23CC(CNC(=O)[C@H](Cc4ccccc4)N(C)C(=O)[C@H](CCCC)NC(=O)[C@H](Cc4ncccc4F)NC1=O)(C2)C3` [compound 228, cyclo(FLac-NMeA-4F3Pal-Nle-2Pal6F-Nle-NMeF-amBCP)] (cyclo([NMeA][X25][Nle][X30][Nle][NMeF][X1][PhLac])) came in with an EC50 above 50.8 µM.

For the molecule `CCCC[C@@H]1NC(=O)[C@H](Cc2cccnc2)NC(=O)[C@H](C)N(C)C(=O)[C@H](Cc2ccc(C)cc2)NC(=O)C23CC(CNC(=O)[C@H](Cc4cccnc4)N(C)C(=O)[C@H](CCCC)NC(=O)[C@H](Cc4ccccc4F)NC1=O)(C2)C3` [compound 170, cyclo(Phe4Me-NMeA-3Pal-Nle-Phe2F-Nle-NMe3Pal-amBCP)] (cyclo([3Pal][Nle][Phe(2-F)][Nle][NMe3Pal][X1][Phe(4-Me)][NMeA])), the EC50 is 37.2 µM.

Molecule `Cc1cccc(C[C@H]2C(=O)NCC34CC(C3)(C4)C(=O)O[C@@H](Cc3ccccc3)C(=O)N(C)[C@@H](C)C(=O)N[C@@H](Cc3cncnc3)C(=O)N[C@@H](CC3CC3)C(=O)N[C@@H](Cc3cnccc3F)C(=O)N[C@@H](CCC(C)C)C(=O)N2C)c1` [compound 278, cyclo(FLac-NMeA-PyrimAla-cPrA-3Pal6F-hL-NMePhe3Me-amBCP)] (cyclo([Ala(cPr)][X15][hLeu][NMePhe(3-Me)][X1][PhLac][NMeA][Ala(pyrimidin-5-yl)])) displayed a 50% effective concentration (EC50) of 4 µM.
